Assay results from patent publication US9149532B2, “Pharmaceutical composition” (DAIICHI SANKYO COMPANY, LIMITED, priority 2007, dated 2015).

Legend:
[1] = Solubility of compound (1) in aqueous solutions; type: physicochemical
[2] = Absorbability after oral administration; type: in vivo; conditions: orally administered to a subject

solubility ([1]; neutral pH aqueous solution (e.g., neutral buffer solution)): solubility decreases
solubility ([1]; strong acidic aqueous solution): high solubility
absorbability [2]: excellent absorbability
SMILES: CN1CCc2nc(C(=O)N[C@@H]3C[C@@H](C(=O)N(C)C)CC[C@@H]3NC(=O)C(=O)Nc3ccc(Cl)cn3)sc2C1 [compound (1), N^1-(5-chloropyridin-2-yl)-N^2-(4-[(dimethylamino)carbonyl]-2-{[(5-methyl-4,5,6,7-tetrahydrothiazolo[5,4-c]pyridin-2-yl)carbonyl]amino}cyclohexyl)ethanediamide]
